Test results as given in patent US20180346731A1, “Formation of Stable Pyranoanthocyanins, and Uses Thereof as Sources of Natural Color” (Ohio State Innovation Foundation, priority 2017, published 2018).

Experiments:
Assay type in all cases: physicochemical
[1] = Anthocyanin survival of control treatments at pH 2.5 (uHPLC AUC 500-520 nm); conditions: pH 2.5 acidified water, no pyruvic acid, 25° C., day 31
Method: FIG. 10: Pyranoanthocyanin yield for anthocyanins (500 μM) subjected to pyruvic acid treatment (×100 M ratio) and anthocyanin survival of control treatments at pH 2.5 acidified water at day 7, 14, and 31. Yield defined as (AUC500-520 nm of PACN at tn/AUC500-520 nm of ACN @t0)*100. Survival defined as (AUC500-520 nm of ACN at tn/AUC500-520 nm of ACN @ t0)*100. Values shown are means (n=3) and bars represent standard deviation.
A uHPLC system (Shimadzu Nexera-i LC-2040C, Maryland, U.S.) coupled with tandem MS (Shimadzu LCMS-8040, Maryland, U.S.) was used in evaluating initial anthocyanin purity and monitoring changes in anthocyanins with and without pyruvic acid treatment over time. A 0.4 mL/min flow rate was used on a Pinnacle DB (Restek Corporation, Bellefonte, Pa.) C18 Column (1.9 μm particle size, 50×2.1 mm length). The column oven was set at 40° C. The following gradient of solvent A (4.5% formic acid) and B (100% acetonitrile) was used: 0% B for the first minute, ramped to 15% B by 10 min. This method was effective for separation of the formed pyranoanthocyanin from anthocyanin for all isolates except cy3rut which coeluted with the formed pyranoanthocyanin. This was observed through MS-MS data. […]
Quantification of pigments was conducted on day 0, 3, 7, 14, and 31 using a standard curve of cyanidin-3-glucoside (Sigma Aldrich, St. Louis, Mo., U.S.) run under the same conditions used for isolates. Molar absorptivities of anthocyanins and carboxypyranoanthocyanidins have been reported as being relatively similar and were thought to provide a basis of confidence in using AUC500-520 nm as a quantitative measure of pyranoanthocyanin yield.
Prior to dilution, the concentrations of the isolated pigment extracts were determined by the pH differential method for subsequent dilution to known concentrations. The isolates were then diluted to 500 μM (expressed as Cyanidin-3-glucoside equivalents) in pH 2.5 deionized water (previously adjusted with HCl) which contained 0.1% potassium sorbate (w/v) and 0.1% sodium benzoate (w/v) to function as preservative agents during storage. […]

[2] = Colorimetry (CIEL*c*h*, ΔE2000) of anthocyanin isolates treated with pyruvic acid, 31 days storage; conditions: for total color change (ΔE): day 0 vs day 31, Delta E2000; for ΔL* / Δc*: day 0 to day 31; for increase in hue angle: over 31 days
Method: (§1) Prior to dilution, the concentrations of the isolated pigment extracts were determined by the pH differential method for subsequent dilution to known concentrations. The isolates were then diluted to 500 μM (expressed as Cyanidin-3-glucoside equivalents) in pH 2.5 deionized water (previously adjusted with HCl) which contained 0.1% potassium sorbate (w/v) and 0.1% sodium benzoate (w/v) to function as preservative agents during storage. A pH of 2.5 was selected as a compromise of several variables: the flavylium form was predominant, the effect of pKh was minimized, and it is a relevant pH for wines. It has been reported that the pKh's of cy3 gal, cy3xylgal, and cy3xylglugal ranges from 3.01 to 3.26. Working at pH 2.5 largely avoided the effect of different equilibrium forms while also maintaining a pH that is similar to that of wines where these compounds are commonly formed. Control samples of each isolate were prepared and contained no pyruvic acid. For treatments containing pyruvic acid, a previously diluted pyruvic acid standard (pyruvic acid in the same pH 2.5 water containing preservatives) was added to obtain concentrations 100× the molar ratio of anthocyanins (50 mM of pyruvic acid). All treatments were brought to the same final volume by the addition of more pH 2.5 water. Samples were filtered through a 0.2 μm membrane into 1.5 mL glass HPLC vials. Vials were capped and stored in an incubator in the dark at 25° C. for a 31 day duration (Fisher Scientific, Waltham, Mass., U.S.). All treatments were prepared in triplicate.
Colorimetric data of samples was calculated from spectra of samples collected from the plate reader with ColorBySpectra. Absorbance data was obtained and conversion to color values was achieved using the following settings: regular transmission, D65 illuminant, and 10° observer angle. Values reported are in the CIEL*c*h* scale. After storage for 31 days, the mathematical differences in color (ΔE) were calculated according to the CIE-L*a*b* Delta E2000 equation. Colorimetric data of the samples containing pyruvic acid was used to correlate with pyranoanthocyanins formation. Spectral absorbance data of the peaks of the anthocyanins and their respective pyranoanthocyanins were also collected from the PDA during uHPLC analyses and converted to colorimetric data using ColorBySpectra under the settings described above. The spectra was obtained from the time of elution of the target compound and then standardized to an absorbance of 1.0 at λvis-max.

[3] = UV-Vis spectra of anthocyanin isolates treated with pyruvic acid, 31 days storage; conditions: for decrease in maximum absorbance: 500 μM, pyruvic acid ×100 M ratio, pH 2.5, 25° C., after 31 days
Method: as §1
Absorbance spectra of anthocyanin isolates subjected to pyruvic acid treatment was collected using a SpectraMax 190 microplate reader (Molecular Devices, Sunnyvale, Calif., U.S.). Sample aliquots (75 μL) were loaded in a 96-well plate (poly-D-lysine coated polystyrene). Samples were evaluated from 380 to 780 nm in 1 nm intervals. The blank consisted of the same acidified pH 2.5 water solution used to dilute pigment samples. Spectra were collected on day 0, 7, 14, and 31. Spectrophotometric data of the samples was used to correlate with pyranoanthocyanins formation.

Row | SMILES | total color change (ΔE) [2] | decrease in maximum absorbance [3] [%] | other results
1 | OC[C@H]1O[C@@H](Oc2cc3c(O)cc(O)cc3[o+]c2-c2ccc(O)c(O)c2)[C@H](O)[C@@H](O)[C@@H]1O [cy3glu, cyanidin-3-glucoside] | 7.2 | – | anthocyanin survival of control treatment [1]: 49%
2 | Oc1cc(O)c2cc(O[C@@H]3OC[C@H](O)[C@H](O)[C@H]3O)c(-c3ccc(O)c(O)c3)[o+]c2c1 [cy3ara, cyanidin-3-arabinoside] | 16.4 | 71 | anthocyanin survival of control treatment [1]: 66%; shift of λvis-max of solution ([3]; pyruvic acid treated, pH 2.5, by day 31): bathochromic shift; ΔL* [2]: 10.2; Δc* [2]: −42.5
3 | OCC1O[C@@H](Oc2cc3c(O)cc(O)cc3[o+]c2-c2ccc(O)c(O)c2)C(O[C@@H]2OC(CO)[C@@H](O)C(O)[C@H]2O)C(O)[C@@H]1O (stereo partly drawn) [cy3soph, cyanidin-3-sophoroside] | 9.2 | – | –
4 | OC[C@H]1O[C@@H](Oc2cc3c(O)cc(O)cc3[o+]c2-c2ccc(O)c(O)c2)[C@H](O[C@@H]2OC[C@@H](O)[C@H](O)[C@H]2O)[C@@H](O)[C@H]1O [cy3xylgal, cyanidin-3-(xylosyl)galactoside] | 7.8 | – | –
5 | C[C@@H]1O[C@@H](OC[C@H]2O[C@@H](Oc3cc4c(O)cc(O)cc4[o+]c3-c3ccc(O)c(O)c3)[C@H](O)[C@@H](O)[C@@H]2O)[C@H](O)[C@H](O)[C@H]1O [cy3rut, cyanidin-3-rutinoside] | 4.9 | 30 | Δc* [2]: −9.7; increase in hue angle [2]: 1.1 °
6 | OC[C@H]1O[C@@H](OC[C@H]2O[C@@H](Oc3cc4c(O)cc(O)cc4[o+]c3-c3ccc(O)c(O)c3)[C@H](O[C@@H]3OC[C@@H](O)[C@H](O)[C@H]3O)[C@@H](O)[C@H]2O)[C@H](O)[C@@H](O)[C@@H]1O [cy3xylglugal, cyanidin-3-(xylosylglucosyl) galactoside] | 8.3 | – | –
7 | OC[C@H]1O[C@@H](OC[C@H]2O[C@@H](Oc3cc4c(O)cc(O)cc4[o+]c3-c3ccc(O)c(O)c3)[C@H](O)[C@@H](O)[C@H]2O)[C@H](O)[C@@H](O)[C@@H]1O [cy3glugal, cyanidin-3-(glucosyl)galactoside] | 3.6 | 26 | ΔL* [2]: 1.8; increase in hue angle [2]: 0.5 °
8 | OC[C@H]1O[C@@H](Oc2cc(O)cc3[o+]c(-c4ccc(O)c(O)c4)c(O[C@@H]4O[C@H](CO)[C@@H](O)[C@H](O)[C@H]4O[C@@H]4O[C@H](CO)[C@@H](O)[C@H](O)[C@H]4O)cc23)[C@H](O)[C@@H](O)[C@@H]1O [cy3soph5glu, cyanidin-3-sophoroside-5-glucoside] | 9.7 | – | initial L* ([2]; pH 2.5, day 0): 87.5
